Converted amounts (≈) assume the structure as drawn. Where two headings read alike, the source gives them in different places.
Legend:
[1] = In vivo drug release: drug concentration in blood plasma after subcutaneous implants; parameters: species or system Wistar Han rat; settings: rat, three compressed implants subcutaneous; for concentration at 9 days / concentration at 16 days / concentration at 30 days / concentration at 44 days / concentration at 58 days / concentration at 0.167 days / concentration at 0.25 days / concentration at 1 day / concentration at 2 days / concentration at 0.083 days: Wistar Han, plasma, sc; for concentration at 9 days / concentration at 16 days / concentration at 30 days / concentration at 44 days / concentration at 0.167 days / concentration at 0.25 days / concentration at 1 day / concentration at 2 days: 60 mg/animal; for concentration at 58 days / concentration at 0.083 days: 60 mg
Description: For each implantation, a Wistar Han rat was anesthetized using isoflurane to effect prior to subcutaneous dose administration. Using a trocar needle, three implants from each formulation example above were placed subcutaneously in the intrascapular region of a rat. Three animals were used for each formulation. Animals were monitored until recovered. At indicated time points, samples of blood were obtained from anesthetized animals (using isoflurane) and processed to plasma for determination of drug concentration by LC/MS. Results are shown in the below table (Table 4).

[2] = Solubility of anti-tuberculosis compounds in PBS; type: physicochemical; settings: aqueous buffer
[3] = In vitro drug release from compressed implants; type: physicochemical; settings: compressed implant 80wt % drug, PBS with 0.2 or 5wt % SDS, 37° C., 50 rpm
Description: The in vitro release rate of the drug was determined by incubating individual implants in a glass vial with phosphate buffered saline (PBS) containing 0.2 or 5wt % sodium dodecyl sulfate (SDS) at 37° C., and 50 rpm shaking in an Innova 42 incubator. The volume of media was sufficient to maintain sink conditions. Sink conditions are defined as the drug concentration maintained at or below ⅓ of the maximum solubility. Samples were removed at selected time points, and centrifuged at 20,800×g for 8 min. The supernatant was analyzed by HPLC.

[4] = dissolution media PBS, 37° C., read-out: Solubility at 37° C.
[5] = in phosphate buffered saline (PBS), read-out: aqueous solubility

SMILES | Drug concentration in blood plasma Avg. ([1]; 0.083 days) | Drug concentration in blood plasma Avg. ([1]; 0.167 days) | Drug concentration in blood plasma Avg. ([1]; 0.25 days) | Drug concentration in blood plasma Avg. ([1]; 1 day) | Drug concentration in blood plasma Avg. ([1]; 2 days) | concentration at 9 days [1] | concentration at 16 days [1] | concentration at 30 days [1] | concentration at 44 days [1] | concentration at 58 days [1] | solubility [2, 4] | solubility [2, 5] | Cumulative in vitro drug release Avg. ([3]; 1 day) | Cumulative in vitro drug release Avg. ([3]; 11 days) | Cumulative in vitro drug release Avg. ([3]; 20 days) | concentration at 0.167 days ([1]; 0.167 days) | concentration at 0.25 days ([1]; 0.25 days) | concentration at 1 day ([1]; 1 day) | concentration at 2 days ([1]; 2 days) | concentration at 0.083 days ([1]; 0.083 days)
COc1nc2ccc(Br)cc2cc1[C@@H](c1ccccc1)[C@@](O)(CCN(C)C)c1cccc2ccccc12 [bedaquiline] | BLQ | BLQ | BLQ | BLQ | BLQ | 81 nM | 63.6 nM | 51.7 nM | 70.3 nM | 60.2 nM | 129 µg/mL (≈ 232 µM) | < 200 µg/mL | 10.9% | 41.4% | 57.2% |  |  |  |  | 
C[C@]1(COc2ccc(N3CCC(Oc4ccc(OC(F)(F)F)cc4)CC3)cc2)Cn2cc([N+](=O)[O-])nc2O1 [delamanid] |  |  |  |  |  |  |  |  |  |  |  |  | 20.3% | 26.8% | 38.3% |  |  |  |  | 
CO[C@H]1/C=C/O[C@@]2(C)Oc3c(C)c(O)c4c(c3C2=O)C2=NC3(CCN(CC(C)C)CC3)NC2=C(NC(=O)/C(C)=C\C=C\[C@H](C)[C@H](O)[C@@H](C)[C@@H](O)[C@@H](C)[C@H](OC(C)=O)[C@@H]1C)C4=O [rifabutin] |  |  |  |  |  | 119 nM | 75.9 nM | 69.3 nM | 42.3 nM | 38.3 nM | 101 µg/mL (≈ 119 µM) | < 200 µg/mL | 40.6% | 107.7% |  | 164 nM | 244 nM | 209 nM | 182 nM | 81.9 nM
CO[C@H]1/C=C/O[C@@]2(C)Oc3c(C)c(O)c4c(O)c(c(/C=N/N5CCN(C6CCCC6)CC5)c(O)c4c3C2=O)NC(=O)/C(C)=C\C=C\[C@H](C)[C@H](O)[C@@H](C)[C@@H](O)[C@@H](C)[C@H](OC(C)=O)[C@@H]1C [rifapentine] |  |  |  |  |  | 5980 nM | 2260 nM | 1010 nM | 1460 nM | 477 nM | 134 µg/mL (≈ 153 µM) | < 200 µg/mL |  |  |  | 803 nM | 1250 nM | 3530 nM | 5210 nM | 630 nM

Reference: patent US20200179273A1, “LONG-ACTION IMPLANT FOR TREATMENT OF INFECTIOUS DISEASES” (Merck Sharp & Dohme Corp., priority 2017, published 2020)
